We go through seven molecules from US7452688B2, “Transformed cell with enhanced sensitivity to antifungal compound and use thereof” (Sumitomo Chemical Company, Limited, priority 2002, dated 2008).

What all share (format): cell-based, Saccharomyces cerevisiae
Test [1] relates to transformed budding yeast AH22-BcOS1-I365S. The experiment in a line: Antifungal compound sensitivity test, transformed budding yeast AH22-BcOS1-I365S (Example 6). The conditions noted are these: absorbance at 600 nm relative to 0 ppm = 100. The source says: Degrees of growths of both of the transformed budding yeasts cultured under the presence of Compounds (1) to (7) and budding yeast as a control therefor are shown in Table 2. Degrees of growths of both of the transformed budding yeasts and budding yeast as a control are expressed by a relative value in percentage, letting the absorbance at 600 nm at the concentration of the Compound of 0 ppm to be 100. It was confirmed that an inhibiting degree of growth of the transformed budding yeast TM182-BcOS1-I 365S by each test substance was grater than an inhibiting degree of growth of the transformed budding yeast AH22-BcOS1-I 365S by each test substance, and the transformed budding yeast TM182-BcOS1-I365S was a transformed cell with the enhanced sensitivity to an antifungal compound as compared with the transformed budding yeast AH22-BcOS1-I365S.

For test [2], the system named is transformed budding yeast AH22-RsOS1. The experiment in a line: Antifungal compound sensitivity test, transformed budding yeast AH22-RsOS1 (Example 19). The conditions noted are these: 30° C. 29.8 hours, relative value in percentage. The method, then:
(§1) The transformed budding yeast AH22-RsOS1 prepared in Example 18 was cultured while shaking at 30° C. for 18 hours in a Glu-Leu medium. As a control, the AH22 strain was similarly cultured while shaking at 30° C. for 18 hours in a Glu medium. The absorbance at 600 nm of each grown transformed budding yeast in a cell suspension was measured, and cell suspension diluted with sterilized distilled water to the absorbance of 0.1 was prepared. Further, a cell suspension in which the aforementioned cell suspension of the transformed budding yeast AH22-RsOS1 was diluted 50-fold with a Glu-Leu medium, and a cell suspension in which the aforementioned cell suspension of the AH22 strain was diluted 50-fold with a Glu medium were prepared.
(§2) A solution in which each of Compounds (1) to (5) was dissolved in dimethylsulfoxide (DMSO) to the concentration of 600 ppm, and a solution in which Compounds (6) and (7) was dissolved in dimethylsulfoxide (DMSO) to the concentration of 60 ppm were prepared, and two microplates were prepared in which each 1.0 μL per well of the Compound solution and DMSO as a control were dispensed. In one microplate among them, each 100 μL of cell suspensions of the transformed budding yeast AH22-RsOS1 which had been prepared by dilution as described above was dispensed, and cultured by allowing to stand at 30° C. for 29.8 hours. In another microplate, each 100 μL of cell suspensions of the control yeast AH22 strain which had been prepared by dilution as described above was dispensed, and cultured by allowing to stand at 30° C. for 24.8 hours. After culturing, the absorbance at 600 nm of each well was measured with a microplate reader.
(§3) A degree of growth of the transformed budding yeast is expressed as a relative value in percentage, letting the absorbance at 600 nm at the concentration of the Compound of 0 ppm to be 100. It was confirmed that an inhibiting degree of growth of the transformed budding yeast TM182-RsOS1 by each test substance was grater than an inhibiting degree of growth of the transformed budding yeast AH22-RsOS1 by each test substance, and the transformed budding yeast TM182-RsOS1 was a transformed cell with the enhanced sensitivity to an antifungal compound as compared with the transformed budding yeast AH22-RsOS1.

The test system of test [3] is transformed budding yeast AH22-StOS1. Description: Antifungal compound sensitivity test, transformed budding yeast AH22-StOS1 (Example 16). The note with it: 30° C. 28 hours, relative value in percentage. The method, then: as §1, with “yeast AH22-StOS1” for “yeast AH22-RsOS1”, “Example 15” for “Example 18”
as §2, with “(1) to (3) was dissolved in dimethylsulfoxide (DMSO) to the concentration of 6 ppm, a solution in which each of Compounds (4) and (5) was” for “(1) to (5) was”, “concentration of 2000 ppm, and” for “concentration of 600 ppm, and”, “concentration of 20 ppm were” for “concentration of 60 ppm were”, “budding yeast AH22-StOS1 which had” for “budding yeast AH22-RsOS1 which had”, “C. for 28 hours. In” for “C. for 29.8 hours. In”, “C. for 24.5 hours. After” for “C. for 24.8 hours. After”
as §3, with “TM182-StOS1” for “TM182-RsOS1”, “AH22-StOS1” for “AH22-RsOS1”, “AH22-StOS1.” for “AH22-RsOS1.”

The test system of test [4] is AH22 strain. The experiment in a line: Antifungal compound sensitivity test, control yeast AH22 strain (Example 16). The conditions noted are these: 30° C. 24.5 hours, relative value in percentage. The method, then: as §1, with “yeast AH22-StOS1” for “yeast AH22-RsOS1”, “Example 15” for “Example 18”
as §2, with “(1) to (3) was dissolved in dimethylsulfoxide (DMSO) to the concentration of 6 ppm, a solution in which each of Compounds (4) and (5) was” for “(1) to (5) was”, “concentration of 2000 ppm, and” for “concentration of 600 ppm, and”, “concentration of 20 ppm were” for “concentration of 60 ppm were”, “budding yeast AH22-StOS1 which had” for “budding yeast AH22-RsOS1 which had”, “C. for 28 hours. In” for “C. for 29.8 hours. In”, “C. for 24.5 hours. After” for “C. for 24.8 hours. After”
as §3, with “TM182-StOS1” for “TM182-RsOS1”, “AH22-StOS1” for “AH22-RsOS1”, “AH22-StOS1.” for “AH22-RsOS1.”

As for `CC12CC1(C)C(=O)N(c1cc(Cl)cc(Cl)c1)C2=O` (stereo not shown) [Compound (1), Procymidone], in test [1] (final concentration 6 ppm), the “Degree of growth of budding yeast (%) AH22-BcOS1-I365S Glu-Leu medium” value (from here on “Degree … (%) AH22-BcOS1-I365S Glu-Leu medium”) was 68%. Also, the “Degree of growth of budding yeast AH22-RsOS1 Glu-Leu medium” value in test [2] (final concentration 6.0 ppm) is 103%. Besides, in test [3] (final concentration 0.6 ppm), the “Degree of growth of budding yeast AH22-StOS1 Glu-Leu medium” value is 101%. The “Degree of growth of budding yeast AH22 Glu medium” value in test [4] (final concentration 0.6 ppm) was 99%.
Regarding `CC(C)NC(=O)N1CC(=O)N(c2cc(Cl)cc(Cl)c2)C1=O` [Compound (2), Iprodione], the “Degree … (%) AH22-BcOS1-I365S Glu-Leu medium” value in test [1] (final concentration 6 ppm) amounted to 81%. In addition, in test [2] (final concentration 6.0 ppm), the “Degree of growth of budding yeast AH22-RsOS1 Glu-Leu medium” value is 101%. The “Degree of growth of budding yeast AH22-StOS1 Glu-Leu medium” value in test [3] (final concentration 0.6 ppm) was 100%. Besides, in test [4] (final concentration 0.6 ppm), the “Degree of growth of budding yeast AH22 Glu medium” value worked out at 94%.
The like results for `C=CC1(C)OC(=O)N(c2cc(Cl)cc(Cl)c2)C1=O` (stereo not shown) [Compound (3), Vinclozolin] were, in that order, 75%, 101%, 98% and 96%.
Regarding `O=[N+]([O-])c1c(Cl)c(Cl)c(Cl)c(Cl)c1Cl` [Compound (4), Quintozene], in test [1] (final concentration 20 ppm), the “Degree … (%) AH22-BcOS1-I365S Glu-Leu medium” value was 83%. The “Degree of growth of budding yeast AH22-RsOS1 Glu-Leu medium” value in test [2] (final concentration 6.0 ppm) is on record as 89%. For the same molecule, the “Degree of growth of budding yeast AH22-StOS1 Glu-Leu medium” value in test [3] (final concentration 20 ppm) is 91%. Also, the “Degree of growth of budding yeast AH22 Glu medium” value in test [4] (final concentration 20 ppm) is 96%.
The like results for `COP(=S)(OC)Oc1c(Cl)cc(C)cc1Cl` [Compound (5), Tolclofos-methyl] were, in that order, 64%, 85%, 76% and 80%.
As to `N#Cc1c[nH]cc1-c1cccc2c1OC(F)(F)O2` [Compound (6), Fludioxonil], the “Degree … (%) AH22-BcOS1-I365S Glu-Leu medium” value in test [1] (final concentration 0.2 ppm) was 67%. Besides, in test [2] (final concentration 0.6 ppm), the “Degree of growth of budding yeast AH22-RsOS1 Glu-Leu medium” value was found to be 79%. Further, the “Degree of growth of budding yeast AH22-StOS1 Glu-Leu medium” value in test [3] (final concentration 0.2 ppm) was 93%. Moreover, the “Degree of growth of budding yeast AH22 Glu medium” value in test [4] (final concentration 0.2 ppm) worked out at 92%.
For the molecule `N#Cc1c[nH]cc1-c1cccc(Cl)c1Cl` [Compound (7), Fenpiclonil], the “Degree … (%) AH22-BcOS1-I365S Glu-Leu medium” value in test [1] (final concentration 0.2 ppm) is 79%. Also, the “Degree of growth of budding yeast AH22-RsOS1 Glu-Leu medium” value in test [2] (final concentration 0.6 ppm) is recorded as 101%. The “Degree of growth of budding yeast AH22-StOS1 Glu-Leu medium” value in test [3] (final concentration 0.2 ppm) was found to be 91%. In addition, in test [4] (final concentration 0.2 ppm), the “Degree of growth of budding yeast AH22 Glu medium” value is 91%.
